# US11453666B2, “Autotaxin inhibitory compounds” (Cancer Research Technology Limited, priority 2015, dated 2022)
# Target: human recombinant ATX (Homo sapiens, UniProt Q13822)
# Test: Autotaxin (ATX) activity Quanta Red assay
# Type: biochemical
# Conditions: Table 2: additional compounds tested for ATX activity (Quanta Red Assay); read-out: Activity
# Procedure, shortened: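 Recombinant human ATX reaction stopped after 2 h with Quanta Red stop solution; fluorescence read at […]. Controls with DMSO, with and without ATX; IC50 in duplicate.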
row,IC50,Structure (SMILES)
1,596 nM,"O=C(CCc1nc2cccnc2n1Cc1ccccc1)NCc1cccc(Cl)c1 [Example 232, 3-(3-Benzyl-3H-imidazo[4,5-b]pyridin-2-yl)-N-(3-chloro-benzyl)-propionamide]"
2,23 nM,"COc1ccc(Cn2c(CCC(=O)NCc3ccc(Cl)cc3)nc3cccnc32)cc1 [Example 218, N-(4-Chloro-benzyl)-3-[3-(4-methoxy-benzyl)-3H-imidazo[4,5-b]pyridin-2-yl]-propionamide]"

# Same assay, conditions: human recombinant ATX 0.8 μg/mL, 2 hours at room temperature, IC50 determined in duplicate; read-out: Activity (ATX activity, Quanta Red assay; IC50)
row,IC50,Structure (SMILES)
1,80 nM,"C[C@H](NC(=O)NCc1nc2cccnc2n1Cc1ccc(F)cc1)c1ccc(F)cc1 [Example 160, 1-[3-(4-Fluoro-benzyl)-3H-imidazo[4,5-b]pyridin-2-ylmethyl]-3-[(S)-1-(4-fluoro-phenyl)-ethyl]-urea]"

# Same assay, conditions: read-out: Activity (ATX activity, Quanta Red assay; IC50)
row,IC50,Structure (SMILES)
1,3 nM,"O=C(COc1nc2cccnc2n1Cc1ccc(OC(F)(F)F)cc1)N[C@@H](CO)c1ccccc1 [Example 151, N-((R)-2-Hydroxy-1-phenyl-ethyl)-2-[3-(4-trifluoromethoxy-benzyl)-3H-imidazo[4,5-b]pyridin-2-yloxy]-acetamide]"
2,1 nM,"O=C(CSc1nc2cccnc2n1Cc1ccc(F)cc1)N[C@@H](CO)c1ccccc1 [Example 143, 2-[3-(4-Fluoro-benzyl)-3H-imidazo[4,5-b]pyridin-2-ylsulfanyl]-N-((R)-2-hydroxy-1-phenyl-ethyl)-acetamide]"
3,1 nM,"O=C(CCc1nc2cccnc2n1Cc1ccc(OC(F)(F)F)cc1)N[C@@H]1c2ccccc2C[C@@H]1O [Example 8, N-((1R,2S)-2-Hydroxy-indan-1-yl)-3-[3-(4-trifluoromethoxy-benzyl)-3H-imidazo[4,5-b]pyridin-2-yl]-propionamide]"
4,13 nM,"C[C@H](NC(=O)CCc1cc2cccnc2n1Cc1ccc(F)cc1)c1ccc(F)cc1 [Example 140, 3-[1-(4-Fluoro-benzyl)-1H-pyrrolo[2,3-b]pyridin-2-yl]-N-[(S)-1-(4-fluoro-phenyl)-ethyl]-propionamide]"
5,5 nM,"C[C@H](NC(=O)CCc1nc2cccnc2n1Cc1ccc(F)c(F)c1)c1ccccc1 [Example 86, 3-[3-(3,4-Difluoro-benzyl)-3H-imidazo[4,5-b]pyridin-2-yl]-N-((S)-1-phenyl-ethyl)-propionamide]"
6,267 nM,"O=C(CCc1nc2cccnc2n1Cc1ccc(OC(F)(F)F)cc1)Nc1nncs1 [Example 73, N-[1,3,4]Thiadiazol-2-yl-3-[3-(4-trifluoromethoxy-benzyl)-3H-imidazo[4,5-b]pyridin-2-yl]-propionamide]"
7,3 nM,"C[C@H](NC(=O)CCc1nc2cccnc2n1Cc1ccc(Br)cc1)c1ccc(F)cc1 [Example 16, 3-[3-(4-Bromo-benzyl)-3H-imidazo[4,5-b]pyridin-2-yl]-N-[(S)-1-(4-fluoro-phenyl)-ethyl]-propionamide]"

# The next lines start with the compound.
row,Structure (SMILES),IC50
1,"C[C@H](NC(=O)CCc1nc2cccnc2n1Cc1ccc(F)c(F)c1)c1ccc(CN2CCOCC2)cc1 [Example 206, 3-[3-(3,4-difluoro-benzyl)-3H-imidazo[4,5-b]pyridin-2-yl]-N—[(S)-1-(4-morpholin-4-ylmethyl-phenyl)-ethyl]-propionamide]",3 nM
2,"C[C@@H]1CN(c2ccc([C@H](C)NC(=O)CCc3nc4cccnc4n3Cc3ccc(OC(F)(F)F)cc3)cc2)CCN1 [Example 174, N-{(S)-1-[4-((R)-3-Methyl-piperazin-1-yl)-phenyl]-ethyl}-3-[3-(4-trifluoromethoxy-benzyl)-3H-imidazo[4,5-b]pyridin-2-yl]-propionamide]",2 nM
3,"O=C(CCc1nc2cccnc2n1Cc1ccc(OC(F)(F)F)cc1)N[C@@H](C(=O)O)C1CCCCC1 [Example 194, (R)-cyclohexyl-{3-[3-(4-trifluoromethoxy-benzyl)-3H-imidazo[4,5-b]pyridin-2-yl]-propionylamino}-acetic Acid]",1 nM
4,"O=C(CCc1nc2cccnc2n1Cc1cccs1)N[C@H](Cc1ccccc1)C(=O)O [Example 202, (R)-3-Phenyl-2-[3-(3-thiophen-2-ylmethyl-3H-imidazo[4,5-b]pyridin-2-yl)-propionylamino]-propionic acid]",819 nM
